The NIST ThermoML archive (doi:10.1021/je700260f)
Numbers after ± are expanded uncertainties.

Details: 283.15 K, Liquid, Vibrating tube method

FC(C(F)(F)F)C(F)(F)F [1,1,1,2,3,3,3-heptafluoropropane]
Details	mass density [kg/m3]
10458 kPa	1500.1 ± 1.6
10488 kPa	1500.2 ± 1.6
10528 kPa	1500.3 ± 1.6
10559 kPa	1500.4 ± 1.6
10588 kPa	1500.6 ± 1.6
10774 kPa	1501.4 ± 1.6
10816 kPa	1501.5 ± 1.6
10838 kPa	1501.7 ± 1.6
10868 kPa	1501.8 ± 1.6
10899 kPa	1502 ± 1.6
10925 kPa	1502.1 ± 1.6
10959 kPa	1502.2 ± 1.6
10981 kPa	1502.4 ± 1.6
11024 kPa	1502.5 ± 1.6
11055 kPa	1502.6 ± 1.6
12114 kPa	1507 ± 1.6
12149 kPa	1507.1 ± 1.6
12177 kPa	1507.2 ± 1.6
12214 kPa	1507.4 ± 1.6
12245 kPa	1507.6 ± 1.6
12281 kPa	1507.6 ± 1.6
12311 kPa	1507.7 ± 1.6
12342 kPa	1507.9 ± 1.6
12373 kPa	1508 ± 1.6
12405 kPa	1508.2 ± 1.6
12437 kPa	1508.3 ± 1.6
12476 kPa	1508.3 ± 1.6
12508 kPa	1508.5 ± 1.6
12544 kPa	1508.6 ± 1.6
12576 kPa	1508.7 ± 1.6
12608 kPa	1509 ± 1.6
12641 kPa	1509.1 ± 1.6
12677 kPa	1509.2 ± 1.6
12709 kPa	1509.4 ± 1.6
12748 kPa	1509.5 ± 1.6
12780 kPa	1509.7 ± 1.6
13258 kPa	1511.5 ± 1.6
13353 kPa	1512 ± 1.6
14612 kPa	1516.6 ± 1.6
14643 kPa	1516.8 ± 1.6
14673 kPa	1516.9 ± 1.6
14713 kPa	1517.2 ± 1.6
14739 kPa	1517.4 ± 1.6
14769 kPa	1517.4 ± 1.6
14799 kPa	1517.6 ± 1.6
14834 kPa	1517.7 ± 1.6
14886 kPa	1517.8 ± 1.6
14927 kPa	1517.9 ± 1.6
14957 kPa	1518.1 ± 1.6
14998 kPa	1518.3 ± 1.6
15045 kPa	1518.4 ± 1.6
15086 kPa	1518.5 ± 1.6
15117 kPa	1518.8 ± 1.6
15153 kPa	1518.8 ± 1.6
15184 kPa	1518.9 ± 1.6
15215 kPa	1519.2 ± 1.6
15256 kPa	1519.2 ± 1.6
15287 kPa	1519.4 ± 1.6
15328 kPa	1519.4 ± 1.6
15365 kPa	1519.5 ± 1.6
15400 kPa	1519.8 ± 1.6
15442 kPa	1519.9 ± 1.6
15474 kPa	1520 ± 1.6
15505 kPa	1520 ± 1.6
15536 kPa	1520.4 ± 1.6
15572 kPa	1520.5 ± 1.6
15607 kPa	1520.5 ± 1.6
15643 kPa	1520.7 ± 1.6
15673 kPa	1520.8 ± 1.6
15714 kPa	1521 ± 1.6
16087 kPa	1522.4 ± 1.6
16114 kPa	1522.4 ± 1.6
16151 kPa	1522.5 ± 1.6
16175 kPa	1522.7 ± 1.6
16606 kPa	1524.3 ± 1.6
16678 kPa	1524.6 ± 1.6
16711 kPa	1524.5 ± 1.6
17447 kPa	1527.3 ± 1.6
17481 kPa	1527.3 ± 1.6
17515 kPa	1527.4 ± 1.6
17545 kPa	1527.7 ± 1.6
17593 kPa	1527.7 ± 1.6
18341 kPa	1530.5 ± 1.6
18418 kPa	1530.6 ± 1.6
18457 kPa	1530.8 ± 1.6
18487 kPa	1530.8 ± 1.6
18526 kPa	1531.1 ± 1.6
18571 kPa	1531.1 ± 1.6
19435 kPa	1534.2 ± 1.6
19479 kPa	1534.3 ± 1.6
19508 kPa	1534.3 ± 1.6
19536 kPa	1534.5 ± 1.6
19574 kPa	1534.6 ± 1.6
19602 kPa	1534.7 ± 1.6
19640 kPa	1534.9 ± 1.6
19673 kPa	1535 ± 1.6
19706 kPa	1535.1 ± 1.6
19739 kPa	1535.3 ± 1.6
19785 kPa	1535.4 ± 1.6
19809 kPa	1535.4 ± 1.6
19854 kPa	1535.6 ± 1.6
19878 kPa	1535.6 ± 1.6
19911 kPa	1535.8 ± 1.6
19949 kPa	1535.8 ± 1.6
19977 kPa	1536.1 ± 1.6
20004 kPa	1536 ± 1.6
20033 kPa	1536.1 ± 1.6
20218 kPa	1536.8 ± 1.6
20257 kPa	1536.9 ± 1.6
20300 kPa	1537.1 ± 1.6
20333 kPa	1537.1 ± 1.6
20396 kPa	1537.4 ± 1.6
20492 kPa	1537.8 ± 1.6
20536 kPa	1538 ± 1.6
20566 kPa	1538 ± 1.6
20605 kPa	1538.1 ± 1.6
20635 kPa	1538.2 ± 1.6
20671 kPa	1538.4 ± 1.6
20709 kPa	1538.4 ± 1.6
20746 kPa	1538.6 ± 1.6
20776 kPa	1538.6 ± 1.6
20810 kPa	1538.7 ± 1.6
20840 kPa	1538.9 ± 1.6
20879 kPa	1539.1 ± 1.7
20918 kPa	1539.3 ± 1.7
20961 kPa	1539.3 ± 1.7
20991 kPa	1539.4 ± 1.7
21029 kPa	1539.6 ± 1.7
21058 kPa	1539.4 ± 1.7
21099 kPa	1539.7 ± 1.7
21129 kPa	1539.8 ± 1.7
21172 kPa	1539.9 ± 1.7
21208 kPa	1540.1 ± 1.7
21242 kPa	1540.3 ± 1.7
21281 kPa	1540.4 ± 1.7
21310 kPa	1540.4 ± 1.7
21350 kPa	1540.7 ± 1.7
21418 kPa	1540.9 ± 1.7
21453 kPa	1540.9 ± 1.7
21503 kPa	1541.2 ± 1.7
21541 kPa	1541.2 ± 1.7
21571 kPa	1541.3 ± 1.7
21610 kPa	1541.4 ± 1.7
21645 kPa	1541.5 ± 1.7
21684 kPa	1541.6 ± 1.7
21709 kPa	1541.6 ± 1.7
21753 kPa	1541.9 ± 1.7
21784 kPa	1542 ± 1.7
21834 kPa	1542.2 ± 1.7
21870 kPa	1542.3 ± 1.7
21901 kPa	1542.3 ± 1.7
21936 kPa	1542.5 ± 1.7
21972 kPa	1542.7 ± 1.7
22011 kPa	1542.7 ± 1.7
22041 kPa	1542.8 ± 1.7
22080 kPa	1543.1 ± 1.7
22115 kPa	1543.2 ± 1.7
22145 kPa	1543.2 ± 1.7
22190 kPa	1543.1 ± 1.7
22231 kPa	1543.5 ± 1.7
22261 kPa	1543.6 ± 1.7
22302 kPa	1543.7 ± 1.7
22349 kPa	1543.9 ± 1.7
22379 kPa	1543.9 ± 1.7
22424 kPa	1544 ± 1.7
22459 kPa	1544.1 ± 1.7
22539 kPa	1544.5 ± 1.7
22579 kPa	1544.6 ± 1.7
22710 kPa	1545.1 ± 1.7
22747 kPa	1545.1 ± 1.7
22782 kPa	1545.2 ± 1.7
22829 kPa	1545.3 ± 1.7
22864 kPa	1545.6 ± 1.7
22974 kPa	1545.8 ± 1.7
23050 kPa	1545.9 ± 1.7
23131 kPa	1546.2 ± 1.7
23178 kPa	1546.5 ± 1.7
23230 kPa	1546.7 ± 1.7
23275 kPa	1546.8 ± 1.7
23311 kPa	1546.9 ± 1.7
23342 kPa	1546.9 ± 1.7
23378 kPa	1547.1 ± 1.7
23418 kPa	1547.2 ± 1.7
23678 kPa	1548 ± 1.7
23750 kPa	1548.3 ± 1.7
23792 kPa	1548.5 ± 1.7
24059 kPa	1549.2 ± 1.7
24099 kPa	1549.4 ± 1.7
24146 kPa	1549.5 ± 1.7
24192 kPa	1549.5 ± 1.7
24228 kPa	1549.8 ± 1.7
24269 kPa	1549.9 ± 1.7
24309 kPa	1550.1 ± 1.7
24608 kPa	1550.8 ± 1.7
24649 kPa	1551 ± 1.7
24695 kPa	1551.2 ± 1.7
24731 kPa	1551.2 ± 1.7
24761 kPa	1551.4 ± 1.7
24807 kPa	1551.5 ± 1.7
24838 kPa	1551.8 ± 1.7
24869 kPa	1551.8 ± 1.7
24920 kPa	1551.9 ± 1.7
24950 kPa	1552 ± 1.7
24990 kPa	1552.1 ± 1.7
25031 kPa	1552.2 ± 1.7
